# Test results from US7504384B2 (priority 2000, dated 2009).
# Tests used:
# [1] = tested on: HIV-1IIIB; assay: Inhibition of p24 production (HIV-1IIIB infection of MT-2 cells); type: cell-based; settings: fourth day, p24 ELISA
# Procedure: Experiment 1.2: Inhibition of HIV-1IIIB Infection
# After 1 h, half of the culture medium was changed and replaced by fresh medium (with/without Lipid-conjugate) and after 24 h, the second half of the culture medium was changed and replaced by fresh medium (with/without Lipid-conjugate). On the fourth day after incubation at 37° C., 100 μl of culture supernatants were collected from each well and an equal volume of fresh medium was added to the wells. The collected supernatants were mixed with an equal volume of 5% (v/v) Triton X-100 and assayed for p24 antigen using an ELISA kit from Coulter Immunology (Hialeah, Fla.).
# [2] = tested on: OVA-sensitized asthmatic rats; assay: OVA-induced broncho-constriction (Penh) in asthmatic rats; type: in vivo, Brown Norway rats
# Procedure: Subjects: Inbred Brown Norway male rats (4 weeks old) obtained from Harlan, USA, were used in this study. The Hebrew University Animal Welfare Committee approved all protocols.
# In mode 1, all groups (5 rats in each) were treated and challenged as described above on day 14, 16, 18 and 20, and pulmonary function (Penh) was assessed on day 20 before and 5 min after challenge (EAR).
# In mode 2, each group (10 rats in each) were treated and challenged from day 14, every other day, until day 45. Pulmonary function (Penh) was assessed on day 20 before and 5 min and 8 h after challenge, corresponding to early and late asthmatic reaction (EAR and LAR, respectively).
# Assessment of broncho-constriction: Unrestrained conscious rats were placed in a whole-body plethysmograph (Buxco Electronics Inc., Troy, N.Y., USA) connected to a pneumotach (EMKA Technologies, Type 0000) at one end, and to a 10 ml bottle at the other end. The pneumotach was connected to a preamplifier (model MAX2270, Buxco Electronics). Analogue signals from the amplifier were converted to a digital signal by an AD card (LPM-16 National Instruments, Austin, Tex., USA). Broncho-constriction measures were expressed as the enhanced pause (Penh). Penh=(PEF/PIF)*((Te−Tr)/Tr), where PEF=Peak Expiratory Flow, PIF=Peak Inspiratory Flow, Te=Expiratory Time, Tr=Relaxation Time=time of the pressure decay to 36% of total box pressure during expiration.
# [3] = tested on: mice; assay: Acute (7 day) toxicity test; type: in vivo; settings: for Body weight (g) Final / Hematocrit % / RBC × 10^6 / WBC × 10^3: 7 day; for Body weight (g) Final / Hematocrit % / RBC × 10^6 / WBC × 10^3 / Body weight (g) Start: mean ± SEM; for toxicity: mortality rate, body weight, blood count, hematocrit, internal organ histology: mice, one week after a single i.p. dose of 1000, 500 or 200 mg/kg, versus untreated mice
# Procedure: […] Mortality rate, body weight, blood count (red and white cells), hematocrit, and internal organ histology after sacrifice were assessed. These parameters were compared in Lipid-conjugate-treated and in control, untreated mice.
# [4] = tested on: HIV-1IIIB-infected H9 cells and uninfected MT-2 cells; assay: Inhibition of fusion between HIV-infected and uninfected cells; type: cell-based; settings: for IC50 (mean ± SD), inhibition of fusion / IC90 (mean ± SD), inhibition of fusion: H9/HIV-1 IIIB + MT-2 cells, 2 h; for IC50 / IC90: Table 1.4
# Procedure: In this assay, HIV-1IIIB-infected H9 cells were labeled with BCECF (2′,7′-bis(2-carboxyethyl)-5-6-carboxyfluorescein-acetoxymethyl-ester, Molecular Probes, Eugene, Oreg.) according to the manufacturer's instructions. BCECF-labeled H9/HIV-1 IIIB cells (10^4) were mixed with 1×10^5 uninfected MT-2 cells. After incubation in a 96-well plate at 37° C. for 2 h, the fused and unfused labeled cells were counted under an inverted fluorescence microscope at ×160 magnification. At least 200 BCECF-labeled cells were counted and the proportion of fused cells was determined Fusion tests were carried out in the presence and absence of graded quantities of the tested Lipid-conjugates. […] The IC50 represents the concentration of a drug that is required to achieve 50% inhibition. Similarly, the IC90 represents the concentration of a drug that is required to achieve 90% inhibition.
# [5] = tested on: HIV; assay: HIV infectivity of supernatant from whole blood mixed with HIV, on HT4-1022 cells; type: cell-based; settings: whole blood mixed with HIV and Lipid-conjugate (50 μM Compound XXIV, 30 μM Compound XXII) for 30 min; FIG. 1.1
# Text: The cells were then spun and the supernatant was examined for HIV infectivity on HT4-1022 cells as described by Margolis-Nunno et al. (Transfusion, 36, 743-750, 1996).
# [6] = tested on: TNF-α and IL-6 in serum; assay: Serum cytokine levels in septic rats (ELISA); type: in vivo, rat
# Procedure: Blood samples were collected 1, 6, 12, and 24 hours after LPS injection to assess cytokine concentrations (FIG. 4.3A). […] Thereafter, the animals received LPS (7.5 mg/kg) i.p. alone or together with Compound XXII (150 mg/kg) or Compound XXV (50 mg/kg). Blood samples were collected after LPS injection. A group of rats that was not treated with Lipid-conjugates or LPS served as negative controls (FIG. 4.3B). All cytokines were measured in separated serum by ELISA Immunoassays (R&D Systems GmbH, Wiesbaden, Germany) according to the instructions of the manufacturer.
# In Experiment 4.5, sepsis was induced by LPS ([…] endotoxin, 5 mg/kg) and lipoteichoic acid (LTA, […] endotoxin, 5 mg/kg; Staph. aureus LTA, Sigma, Germany).
# [7] = target: V3 (third variable) domain of the HIV-1 envelope glycoprotein gp120; assay: V3 antibody binding (ELISA); design: species or system human immunodeficiency virus type 1 (HIV-1); settings: standard ELISA
# Procedure: V3 antibody binding is an assay that uses an antibody that binds to the V3 (third variable) domain of the human immunodeficiency virus type 1 (HIV-1) envelope glycoprotein gp120. Anti-V3 domain antibodies may provide an indicator of the presence and amount of HIV. V3 antibody binding was determined by standard ELISA.
# [8] = tested on: Influenza A (H3N2 strain) virus; type: cell-based, Influenza type A, A/Panama/2007/99 (H3N2); settings: high concentration, Neutral Red Uptake Assay
substance,measurement,setting,value
dipalmitoyl-PE conjugated to HA [Compound XXII],IC50,[1],3.11 µM
same,"IC50 (mean ± SD), inhibition of p24 production",[1],207.0 ± 18.0 µg/mL
same,IC90,[1],5.76 µM
same,"IC90 (mean ± SD), inhibition of p24 production",[1],384.3 ± 79.3 µg/mL
same,"broncho-constriction (percent change of Penh), early asthmatic reaction (EAR)","[2]; aerosol inhalation, 5 min after challenge, compared with Naïve or Dx-treated groups, p<0.01 vs Asthmatic",no significant difference
same,"broncho-constriction (percent change of Penh), late asthmatic reaction (LAR)","[2]; aerosol inhalation, 8 h after challenge, compared with Naïve or Dx-treated groups, p<0.01 vs Asthmatic",no significant difference
same,"allergen-induced broncho-constriction (Penh), inhaled before OVA challenge","[2]; already asthmatic rats, nebulized 1 mg/ml for 5 minutes, 30 minutes before challenge",effective in preventing allergen-induced broncho-constriction
same,"broncho-constriction (Penh), inhaled after OVA challenge","[2]; asthmatic rats, nebulized 1 mg/ml for 5 minutes, thirty minutes after challenge",reverse broncho-constriction
same,Body weight (g) Final,[3]; 250 mg/kg body weight,23.1 ± 0.6 g
same,Hematocrit %,[3]; 250 mg/kg body weight,43.3 ± 0.7%
same,RBC × 10^6,[3]; 250 mg/kg body weight,11.4 ± 0.1 × 10^6
same,WBC × 10^3,[3]; 250 mg/kg body weight,7.7 ± 0.2 × 10^3
same,Body weight (g) Start,[3]; 250 mg/kg body weight,22.1 ± 0.4 g
same,Body weight (g) Final,[3]; 500 mg/kg body weight,22.3 ± 0.4 g
same,Hematocrit %,[3]; 500 mg/kg body weight,44.7 ± 2.3%
same,RBC × 10^6,[3]; 500 mg/kg body weight,11.5 ± 0.3 × 10^6
same,WBC × 10^3,[3]; 500 mg/kg body weight,8.1 ± 1.3 × 10^3
same,Body weight (g) Start,[3]; 500 mg/kg body weight,21.4 ± 0.3 g
same,Body weight (g) Final,[3]; 1000 mg/kg body weight,22.1 ± 0.2 g
same,Hematocrit %,[3]; 1000 mg/kg body weight,40.3 ± 0.7%
same,RBC × 10^6,[3]; 1000 mg/kg body weight,10.9 ± 0.4 × 10^6
same,WBC × 10^3,[3]; 1000 mg/kg body weight,7.4 ± 0.6 × 10^3
same,Body weight (g) Start,[3]; 1000 mg/kg body weight,21.7 ± 0.2 g
same,"toxicity: mortality rate, body weight, blood count, hematocrit, internal organ histology",[3],did not alter the parameters
same,"IC50 (mean ± SD), inhibition of fusion",[4],>500 µg/mL
same,"IC90 (mean ± SD), inhibition of fusion",[4],>500 µg/mL
same,IC50,[4],> 7.5 µM
same,IC90,[4],> 7.5 µM
same,HIV infectivity,[5],prevent HIV infection of cells
same,cytokine production induced by LPS or LPS + LTA,"[6]; 150 mg/kg, 5 mg/kg i.p. LPS, or LPS + 5 mg/kg i.p. LTA, 1 and 6 hours",effective in suppressing cytokine production
same,endotoxin-induced cytokine production,"[6]; i.v. at the same time as LPS i.p., versus i.p. pretreatment",suppressed equally well
same,IC50,[7],45 µM
dipalmitoyl-phosphatidyl-ethanolamine conjugated to heparin [Compound XXIV],IC50,[1],0.7 µM
same,"IC50 (mean ± SD), inhibition of p24 production",[1],10.0 ± 2.3 µg/mL
same,IC90,[1],1.35 µM
same,"IC90 (mean ± SD), inhibition of p24 production",[1],19.3 ± 4.5 µg/mL
same,"toxicity: mortality rate, body weight, blood count, hematocrit, internal organ histology",[3],did not alter the parameters
same,"IC50 (mean ± SD), inhibition of fusion",[4],7.9 ± 1.3 µg/mL
same,"IC90 (mean ± SD), inhibition of fusion",[4],15.3 ± 3.9 µg/mL
same,IC50,[4],0.55 µM
same,IC90,[4],1.07 µM
same,HIV infectivity,[5],prevent HIV infection of cells
same,IC50,[7],140 µM
same,EC50,[8],900 µg/mL
